Experimental data from ChEMBL document CHEMBL5537115, “New broad-spectrum and potent antibacterial agents with dual-targeting mechanism: Promoting FtsZ polymerization and disrupting bacterial membranes” (Eur J Med Chem, 2024).
The source made the active and inactive calls. The calls are words filed in the database; no cut-off is given here.

Assays:
[1] = tested on: Staphylococcus aureus; assay: Induction of resistance development in Staphylococcus aureus ATCC25923 assessed as fold increase in MIC at 0.5 times MIC measured after 32 days by multi-passage resistance assay relative to control; format: functional; settings: time 32.0 day
[2] = tested on: Staphylococcus aureus; assay: Induction of membrane potential depolarization in Staphylococcus aureus ATCC25923 measured after 20 mins by diSC35 dye based spectroscopy; format: functional, organism-based
[3] = tested on: Staphylococcus aureus; assay: Inhibition of biofilm formation of Staphylococcus aureus ATCC25923 incubated for 20 hrs by crystal violet staining based analysis; format: functional, organism-based
[4] = tested on: Acinetobacter baumannii; assay: Selectivity ratio of MBC for Acinetobacter baumannii ATCC19606 to MIC for Acinetobacter baumannii ATCC19606; format: functional
[5] = tested on: Staphylococcus aureus; assay: Antibacterial activity against Staphylococcus aureus clinical isolate incubated for 18 to 24 hrs; format: functional; settings: time 18-24 hrs
[6] = tested on: Bacillus subtilis; assay: Antibacterial activity against penicillin-susceptible Bacillus subtilis ATCC9372 incubated for 18 to 24 hrs; format: functional; settings: time 18-24 hrs
[7] = tested on: Klebsiella pneumoniae; assay: Antibacterial activity against Klebsiella pneumoniae ATCC BAA-1902 assessed as bacterial growth inhibition incubated for 20 hrs by CLSI based broth microdilution method; format: functional
[8] = target: T1, Cell division protein FtsZ (Bacillus subtilis) (UniProt A5Z1V5); assay: Induction of FtsZ polymerization in Bacillus subtilis preincubated for 10 mins followed by GTP addition measured upto 30 mins by absorbance based assay; settings: dose 2.5-10 µg/ml, time 40.0 min
T1 sequence (whole entry): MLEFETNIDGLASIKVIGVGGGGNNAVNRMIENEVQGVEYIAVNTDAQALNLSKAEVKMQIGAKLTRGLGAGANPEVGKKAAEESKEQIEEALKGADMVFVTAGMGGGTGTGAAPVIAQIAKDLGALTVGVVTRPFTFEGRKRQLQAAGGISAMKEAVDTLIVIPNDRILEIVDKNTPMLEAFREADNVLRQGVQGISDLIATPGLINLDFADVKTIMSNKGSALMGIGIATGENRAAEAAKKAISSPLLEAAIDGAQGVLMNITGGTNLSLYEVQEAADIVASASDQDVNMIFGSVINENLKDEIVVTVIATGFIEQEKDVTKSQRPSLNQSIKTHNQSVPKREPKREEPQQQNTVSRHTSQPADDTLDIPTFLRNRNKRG

[9] = tested on: Staphylococcus aureus; assay: Antibacterial activity against penicillin-resistant Staphylococcus aureus ATCC31007 assessed as bacterial growth inhibition incubated for 20 hrs by CLSI based broth microdilution method; format: functional
[10] = tested on: Enterococcus faecium; assay: Antibacterial activity against vancomycin-resistant Enterococcus faecium ATCC51559 assessed as bacterial growth inhibition incubated for 20 hrs by CLSI based broth microdilution method; format: functional
[11] = tested on: Staphylococcus aureus; assay: Antibacterial activity against erythromycin-susceptible Staphylococcus aureus ATCC25923 incubated for 18 to 24 hrs; format: functional; settings: time 18-24 hrs
[12] = Hemolytic activity in mouse erythrocytes at 16 ug/ml incubated for 1 hr by absorbance based assay; format: toxicity, cell-based, Erythrocyte; settings: at 16 µg/mL, read-out: Activity
[13] = tested on: Streptococcus pyogenes; assay: Antibacterial activity against erythromycin-susceptible Streptococcus pyogenes 1 assessed as bacterial growth inhibition incubated for 20 hrs by CLSI based broth microdilution method; format: functional
[14] = tested on: Acinetobacter baumannii; assay: Antibacterial activity against Acinetobacter baumannii ATCC19606 assessed as bacterial growth inhibition incubated for 20 hrs by CLSI based broth microdilution method; format: functional
[15] = target: T1, Cell division protein FtsZ (Bacillus subtilis); assay: Induction of FtsZ polymerization in Bacillus subtilis assessed as bundling of FtsZ protofilaments at 10 ug/ml preincubated for 15 mins followed by GTP addition measured after 10 mins by TEM analysis; settings: dose 10.0 µg/ml, time 25.0 min
[16] = tested on: Escherichia coli; assay: Antibacterial activity against wild-type Escherichia coli BW25113 assessed as bacterial growth inhibition incubated for 20 hrs by CLSI based broth microdilution method; format: functional
[17] = tested on: Staphylococcus aureus; assay: Antibacterial activity against methicillin-resistant Staphylococcus aureus ATCC43300 assessed as bacterial growth inhibition incubated for 20 hrs by CLSI based broth microdilution method; format: functional
[18] = tested on: Staphylococcus aureus; assay: Disruption of inner membrane in Staphylococcus aureus ATCC25923 by PI staining based analysis; format: functional, organism-based; settings: time 12.0 min, TDE = time-dependent effect
[19] = tested on: Bacillus pumilus; assay: Antibacterial activity against penicillin-susceptible Bacillus pumilus CMCC63202 assessed as bacterial growth inhibition incubated for 20 hrs by CLSI based broth microdilution method; format: functional
[20] = tested on: Staphylococcus aureus; assay: Disruption of inner membrane in Staphylococcus aureus ATCC25923 measured after 12 mins by PI staining based analysis; format: functional, organism-based
[21] = tested on: Bacillus subtilis; assay: Induction of morphological change in Bacillus subtilis ATCC9372 assessed as increase in cell length at 0.5 times MIC by phase contrast microscopy; format: functional, organism-based
[22] = tested on: Staphylococcus aureus; assay: Antibacterial activity against erythromycin-susceptible Staphylococcus aureus ATCC25923 assessed as bacterial growth inhibition incubated for 20 hrs by CLSI based broth microdilution method; format: functional
[23] = tested on: Staphylococcus aureus; assay: Induction of morphological change in Staphylococcus aureus ATCC25923 assessed as loss of bacterial membrane integrity at 16 times MIC incubated for 2 hrs by TEM analysis; format: functional, organism-based
[24] = tested on: Bacillus subtilis; assay: Antibacterial activity against penicillin-susceptible Bacillus subtilis ATCC9372 assessed as bacterial growth inhibition incubated for 20 hrs by CLSI based broth microdilution method; format: functional
[25] = tested on: Enterococcus faecalis; assay: Antibacterial activity against vancomycin-resistant Enterococcus faecalis ATCC51299 assessed as bacterial growth inhibition incubated for 20 hrs by CLSI based broth microdilution method; format: functional
[26] = tested on: Staphylococcus aureus; assay: Antibacterial activity against methicillin-resistant Staphylococcus aureus ATCC43300 incubated for 18 to 20 hrs; format: functional; settings: time 18-20 hrs
[27] = target: T1, Cell division protein FtsZ (Bacillus subtilis); assay: Induction of FtsZ polymerization in Bacillus subtilis at 2.5 to 10 ug/ml preincubated with compound followed by GTP addition by absorbance based assay; settings: dose 2.5-10 µg/ml, time 40.0 min, TDE = time-dependent effect
[28] = tested on: Staphylococcus aureus; assay: Inhibition of biofilm formation of Staphylococcus aureus ATCC25923 at 0.5 ug/ml incubated for 20 hrs by crystal violet staining based analysis relative to control; format: functional
[29] = tested on: Staphylococcus aureus; assay: Selectivity ratio of MBC for Staphylococcus aureus clinical isolate to MIC for Staphylococcus aureus clinical isolate; format: functional
[30] = tested on: Staphylococcus aureus; assay: Induction of morphological change in Staphylococcus aureus ATCC25923 assessed as leakage of cell contents at 16 times MIC incubated for 2 hrs by TEM analysis; format: functional, organism-based
[31] = tested on: Staphylococcus aureus; assay: Selectivity ratio of MBC for erythromycin-susceptible Staphylococcus aureus ATCC25923 to MIC for erythromycin-susceptible Staphylococcus aureus ATCC25923; format: functional
[32] = tested on: Staphylococcus aureus; assay: Antibacterial activity against Staphylococcus aureus clinical isolate assessed as bacterial growth inhibition incubated for 20 hrs by CLSI based broth microdilution method; format: functional
[33] = tested on: Enterococcus faecium; assay: Antibacterial activity against vancomycin-susceptible Enterococcus faecium ATCC19434 assessed as bacterial growth inhibition incubated for 20 hrs by CLSI based broth microdilution method; format: functional
[34] = tested on: Escherichia coli; assay: Antibacterial activity against penicillin-susceptible Escherichia coli ATCC25922 assessed as bacterial growth inhibition incubated for 20 hrs by CLSI based broth microdilution method; format: functional
[35] = tested on: Acinetobacter baumannii; assay: Antibacterial activity against Acinetobacter baumannii ATCC19606 incubated for 18 to 24 hrs; format: functional; settings: time 18-24 hrs
[36] = tested on: Staphylococcus epidermidis; assay: Antibacterial activity against penicillin-resistant Staphylococcus epidermidis clinical isolate assessed as bacterial growth inhibition incubated for 20 hrs by CLSI based broth microdilution method; format: functional
[37] = Hemolytic activity in mouse erythrocytes at 32 ug/ml incubated for 1 hr by absorbance based assay; format: toxicity, cell-based, Erythrocyte; settings: at 32 µg/mL, read-out: Activity
[38] = tested on: Bacillus subtilis; assay: Selectivity ratio of MBC for penicillin-susceptible Bacillus subtilis ATCC9372 to MIC for penicillin-susceptible Bacillus subtilis ATCC9372; format: functional
[39] = tested on: Streptococcus pyogenes; assay: Antibacterial activity against erythromycin-resistant Streptococcus pyogenes 2 clinical isolate assessed as bacterial growth inhibition incubated for 20 hrs by CLSI based broth microdilution method; format: functional
[40] = tested on: Staphylococcus aureus; assay: Selectivity ratio of MBC for methicillin-resistant Staphylococcus aureus ATCC43300 to MIC for methicillin-resistant Staphylococcus aureus ATCC43300; format: functional
[41] = tested on: Enterococcus faecalis; assay: Antibacterial activity against vancomycin-susceptible Enterococcus faecalis ATCC29212 assessed as bacterial growth inhibition incubated for 20 hrs by CLSI based broth microdilution method; format: functional

C[n+]1cc(-c2ccccc2)c(/C=C/c2ccc(N3CCCC3)cc2)cc1-c1ccc(C(C)(C)C)cc1.[I-]
fold change (FC) [1]: 2 | Activity [2]: Dose-Dependent Effect | inhibition [3]: Dose-Dependent Effect | Ratio [4]: 2 | MBC [5]: 0.5 µg/mL | MBC [6]: 0.5 µg/mL | MIC [7]: 16 µg/mL | Activity [8]: Dose-Dependent Effect | MIC [9]: 0.25 µg/mL | MIC [10]: 2 µg/mL | MBC [11]: 1 µg/mL | hemolysis at 1 h, 16 ug/ml [12]: 4.65% | MIC [13]: 0.5 µg/mL | MIC [14]: 1 µg/mL | Activity [15]: Active | MIC [16]: 8 µg/mL | MIC [17]: 0.5 µg/mL | Activity [18]: Tde | MIC [19]: 0.062 µg/mL | Activity [20]: Dose-Dependent Effect | Activity [21]: Active | MIC [22]: 0.062 µg/mL | Activity [23]: Active | MIC [24]: 0.5 µg/mL | MIC [25]: 2 µg/mL | MBC [26]: 1 µg/mL | Activity [27]: Tde | inhibition at 0.5 µg/mL [28]: 59.1% | Ratio [29]: 1 | Activity [30]: Active | Ratio [31]: 8 | MIC [32]: 0.5 µg/mL | MIC [33]: 2 µg/mL | MIC [34]: 8 µg/mL | MBC [35]: 2 µg/mL | MIC [36]: 1 µg/mL | hemolysis at 1 h, 32 ug/ml [37]: 13.7% | Ratio [38]: 1 | MIC [39]: 1 µg/mL | Ratio [40]: 2 | MIC [41]: 0.5 µg/mL
